From patent US20050080260A1, “Preparation of prodrugs for selective drug delivery” (priority 2003, published 2005)
Where two headings read alike, the source gives them in different places. Marks after values point to notes of the source that are not given here. Values belong to the compound of their own block, whether it stands above or below them.

How the values were obtained:
[1] = Toxicity on replicate uninfected macrophage plates (MTS cell viability); assay type: cell-based, human; details: human, uninfected macrophages, MTS, read-out: TC50 (50% cytotoxicity)
Experimental: (§1) Evaluation of Prodrug Anti-HIV-1 Potency in Macrophage Assay. The anti HIV-1 evaluation of the carriers and their conjugates was performed in 6-day old monocyte/macrophages at Southern Research Institute, Frederick, Md. Briefly, peripheral blood monocytes were isolated from normal HIV-1 negative donors by plastic adherence following ficoll hypaque purification of the buffy coats. The monocytes were then cultured for 6 days to a macrophage-like phenotype. The test compounds were serially diluted and added to the cultures followed by the addition of a pretitered amount of the Ba-L strain of HIV-1 obtained from the NIAID AIDS Research and Reference Reagent Repository. Cultures were washed by media removal 24 hours post infection, fresh compound added and the cultures continued for an additional 6 days. HIV p24 antigen content to assess virus replication was measured by p24 ELISA assay. AZT and ddc were used as positive control compounds and run in parallel with each determination. […] At assay termination, the assay plates were stained with the tetrazolium based dye MTS to determine cell viability and quantify compound toxicity. Using a computer program at Southern Research Institute, IC50 (50% inhibition of virus replication), TC50 (50% cytotoxicity) and a therapeutic index (TI, […]) were obtained.

[2] = test system: monocyte/macrophages; test: as above; assay type: cell-based, human; details: Southern Research Institute tests, TABLES 7-9
Experimental: as §1

[3] = test system: Ba-L strain of HIV-1; test: Anti-HIV-1 potency in macrophage assay (p24 ELISA); assay type: cell-based, HIV-1 in human monocyte/macrophages; details: for IC50: Human immunodeficiency virus 1, BAL, Macrophage
Experimental: as §1

[4] = test system: Friends Leukemia Virus (FLV); test: Anti-retroviral potency in a murine model (FLV-infected mice, spleen and body weight); assay type: in vivo, Swiss mice; details: for Average Final Weight / Average Weight Change / Average Spleen Weight: FLV-infected four-week old Swiss mice, 300 nanomoles on days 5-9, sacrificed day 12; for Average Spleen Weight: p < 0.01 for MTLJ-1-Foscarnet; for weight gain: FLV-infected mice, treated group
Experimental: (§2) Evaluation Foscarnet Prodrug Anti-Retroviral Potency in a Murine Model. The effect of prodrug MTLJ-1-Foscarnet on four-week old Swiss mice infected with Friends Leukemia Virus (FLV) was tested by the Luminide Pharmaceutical Corporation. The mice were infected with FLV by an IP injection with 0.5 ml viral solution prepared by resuspending F4-6 cells (1×10^6 cells/ml) in fresh media and harvesting that media 24 hr later and filtering through a […] filter. The Foscarnet Group received 300 nanomoles of Foscarnet on days 5-9. The Carrier Group received 300 nanomoles of carrier on days 5-9. The MTLJ-1-Foscarnet Group received 300 nanomoles of MTLJ-1-Foscarnet on days 5-9. All mice were sacrificed on day 12. The spleens were removed and weighed. The toxicity of the carrier MTLJ-1 was also evaluated by the determination of its LD50.

[5] = Acute toxicity, determination of LD50; assay type: in vivo
Experimental: as §2

[6] = TABLE 9 (6a carrier and Foscarnet prodrug)
[7] = TABLE 8 (6a carrier and ddc prodrug, Southern Research Institute), HIV-1 Ba-L, human macrophages, p24 antigen, read-out: IC50 (50% inhibition of virus replication)
[8] = TABLE 9 (6a carrier and Foscarnet prodrug, Southern Research Institute), HIV-1 Ba-L, human macrophages, p24 antigen, read-out: IC50 (50% inhibition of virus replication)
[9] = TABLE 10, Southern Research Institute under NIH contract, HIV-1 in human macrophages, read-out: IC50
[10] = TABLE 10, Southern Research Institute under NIH contract
[11] = TABLE 7 (negative control carrier test)
[12] = TABLE 7 (negative control carrier test, Southern Research Institute), HIV-1 Ba-L, human macrophages, p24 antigen, read-out: IC50 (50% inhibition of virus replication)

- IC50 [3, 7]: > 100 µM
- IC50 [3, 8]: 23.1 µM
- IC50 [3, 9]: 2.62 µM
SMILES: CCN(c1ccc(/C(=C/C=C/C(=C2C=CC(=[N+](CC)c3ccc4c(=O)[nH][nH]c(=O)c4c3)C=C2)c2ccc(N(C)C)cc2)c2ccc(N(C)C)cc2)cc1)c1ccc2c(=O)[nH][nH]c(=O)c2c1 [6a]
- CC50 at 7 days ([1]; TABLE 8 (6a carrier and ddc prodrug)): > 100 µM
- CC50 at 7 days [1, 6]: > 104 µM
- Toxicity in macrophage assay (in words) [2]: nontoxic
- TI (TC50/IC50) [3, 6]: >4.48
- TI (TC50/IC50) [3, 10]: >38.2

SMILES: O=C([O-])P(=O)([O-])[O-].[Na+].[Na+].[Na+] [Foscarnet, phosphonoformate, reference compound]
- Average Final Weight [4]: 18.9 g
- Average Weight Change [4]: +1.5 g
- Average Spleen Weight [4]: 0.1727 g
- weight gain [4]: 1.5 grams
- CC50 at 7 days [1, 11]: > 10 µM
- CC50 at 7 days [1, 6]: > 333 µM
- IC50 [3, 12]: 0.55 µM
- IC50 [3, 8]: 1.83 µM
- TI (TC50/IC50) [3, 11]: >18
- TI (TC50/IC50) [3, 6]: >182.08

- IC50 [3, 9]: 23.1 µM
SMILES: CCN(c1ccc(/C(=C/C=C/C(=C2C=CC(=[N+](CC)c3ccc4c(=O)[nH][nH]c(=O)c4c3)C=C2)c2ccccc2)c2ccccc2)cc1)c1ccc2c(=O)[nH][nH]c(=O)c2c1 [GZW1-98-2]
- TI (TC50/IC50) [3, 10]: >4.3

- IC50 [3, 9]: 18.9 µM
SMILES: CCN(c1ccc(/C(=C/C=C/C=C2C=CC(=[N+](C)C)C=C2)c2ccc(N(C)C)cc2)cc1)c1ccc2c(=O)[nH][nH]c(=O)c2c1 [GZW2-33-1]
- TI (TC50/IC50) [3, 10]: >5.3

SMILES: CCCC(NCCN(CC)c1ccc(/C(=C/C=C/C(OP(=O)(O)C(=O)O)(c2ccc(N(C)C)cc2)c2ccc(N(CC)CCNC(CCC)N(CC)c3ccc4c(=O)[nH][nH]c(=O)c4c3)cc2)c2ccc(N(C)C)cc2)cc1)N(CC)c1ccc2c(=O)[nH][nH]c(=O)c2c1 (stereo not drawn) [MTLJ-1-Foscarnet]
- Spleen weights compared with control groups (in words) ([4]; FLV-infected Swiss mice): the same as those of the No Virus, No Treatment Group
- Suppression of FLV infection in mice (in words) ([4]; FLV-infected Swiss mice, significance level of 0.01, Students T test): highly effective
- Average Final Weight [4]: 22.4 g
- Average Weight Change [4]: +2.5 g
- Average Spleen Weight [4]: 0.0914^a g
- weight gain [4]: 2.5 grams
- Toxicity in vivo (in words) ([5]; from LD50 and weight gain): nontoxic
- LD50 ([5]; mouse, in vivo, ip): > 1250 mg/kg

- IC50 [3, 12]: > 10 µM
SMILES: CCCCc1ccc(C(/C=C/C=C(\c2ccc(CCCC)cc2)c2ccc(OCCN(CC)c3ccc4c(=O)[nH][nH]c(=O)c4c3)cc2)=C2C=CC(=[O+]CCN(CC)c3ccc4c(=O)[nH][nH]c(=O)c4c3)C=C2)cc1 [YY99811-1]
- CC50 at 7 days [1, 11]: > 10 µM
- Toxicity in macrophage assay (in words) [2]: nontoxic

- IC50 [3, 7]: 0.07 µM
- IC50 [3, 9]: 0.04 µM
SMILES: Nc1ccn([C@H]2CC[C@@H](CO)O2)c(=O)n1 [ddc, dideoxycytidine, reference compound]
- TI (TC50/IC50) [3]: >2,500
